Test [1] has as its system Nakaseomyces glabratus. The experiment in a line: Antifungal activity against Candida glabrata ATCC 90030 at 32 ug/ml by broth dilution method. The test is classed as functional, organism-based.
Test [2] deals with Candida albicans. The experiment in a line: Antifungal activity against Candida albicans ATCC 24433 at 32 ug/ml by broth dilution method. Type of test: functional, organism-based.
For test [3], the system named is Fusarium proliferatum. The experiment in a line: Antifungal activity against Fusarium proliferatum ATCC 10052 at 32 ug/ml by broth dilution method. Type of test: functional, organism-based.
Test [4] has as its system Aspergillus fumigatus. The experiment in a line: Antifungal activity against Aspergillus fumigatus ATCC 46645 at 32 ug/ml by broth dilution method. Type of test: functional, organism-based.
The subject of test [5] is Pichia kudriavzevii. As to the kind of experiment: Antifungal activity against Candida krusei ATCC 6258 at 32 ug/ml by broth dilution method. The test is classed as functional, organism-based.
In test [6] the test system is Aspergillus niger. The experiment in a line: Antifungal activity against Aspergillus niger ATCC 16404 at 32 ug/ml by broth dilution method. The test is classed as functional, organism-based.
Test [7] relates to Cryptococcus neoformans. As to the kind of experiment: Antifungal activity against Cryptococcus neoformans ATCC 34664 at 32 ug/ml by broth dilution method. Type of test: functional, organism-based.
The subject of test [8] is Candida tropicalis. As to the kind of experiment: Antifungal activity against Candida tropicalis ATCC 750 at 32 ug/ml by broth dilution method. The test is classed as functional, organism-based.
The subject of test [9] is Aspergillus niger. As to the kind of experiment: Antifungal activity against Aspergillus niger ATCC 16404 at 8 ug/ml by broth dilution method. Type of test: functional, organism-based.
Test [10] has as its system Nakaseomyces glabratus. The experiment in a line: Antifungal activity against Candida glabrata ATCC 90030 by broth dilution method. Type of test: functional.
In test [11] the test system is Candida tropicalis. As to the kind of experiment: Antifungal activity against Candida tropicalis ATCC 750 at 8 ug/ml by broth dilution method. The test is classed as functional, organism-based.
For test [12], the system named is Aspergillus fumigatus. As to the kind of experiment: Antifungal activity against Aspergillus fumigatus ATCC 46645 at 8 ug/ml by broth dilution method. Type of test: functional, organism-based.
Test [13] concerns Candida albicans. The experiment in a line: Antifungal activity against Candida albicans ATCC 24433 by broth dilution method. Type of test: functional.
The subject of test [14] is Cryptococcus neoformans. As to the kind of experiment: Antifungal activity against Cryptococcus neoformans ATCC 34664 at 8 ug/ml by broth dilution method. Type of test: functional, organism-based.
Test [15] concerns Pichia kudriavzevii. As to the kind of experiment: Antifungal activity against Candida krusei ATCC 6258 at 8 ug/ml by broth dilution method. Type of test: functional, organism-based.
Test [16] relates to Fusarium proliferatum. The experiment in a line: Antifungal activity against Fusarium proliferatum ATCC 10052 at 8 ug/ml by broth dilution method. Type of test: functional, organism-based.
Test [17] relates to Candida tropicalis. As to the kind of experiment: Antifungal activity against Candida tropicalis ATCC 750 by broth dilution method. Type of test: functional.
For test [18], the system named is Aspergillus niger. The experiment in a line: Antifungal activity against Aspergillus niger ATCC 16404 at 16 ug/ml by broth dilution method. The test is classed as functional, organism-based.
Test [19] relates to Pichia kudriavzevii. The experiment in a line: Antifungal activity against Candida krusei ATCC 6258 at 16 ug/ml by broth dilution method. The test is classed as functional, organism-based.
Test [20] relates to Aspergillus fumigatus. As to the kind of experiment: Antifungal activity against Aspergillus fumigatus ATCC 46645 at 16 ug/ml by broth dilution method. The test is classed as functional, organism-based.
Test [21] has as its system Cryptococcus neoformans. The experiment in a line: Antifungal activity against Cryptococcus neoformans ATCC 34664 at 16 ug/ml by broth dilution method. The test is classed as functional, organism-based.
The test system of test [22] is Candida tropicalis. As to the kind of experiment: Antifungal activity against Candida tropicalis ATCC 750 at 16 ug/ml by broth dilution method. The test is classed as functional, organism-based.
Test [23] relates to Fusarium proliferatum. The experiment in a line: Antifungal activity against Fusarium proliferatum ATCC 10052 at 16 ug/ml by broth dilution method. Type of test: functional, organism-based.
The test system of test [24] is Candida tropicalis. The experiment in a line: Antifungal activity against Candida tropicalis ATCC 750 at 2 ug/ml by broth dilution method. Type of test: functional, organism-based.
The subject of test [25] is Cryptococcus neoformans. The experiment in a line: Antifungal activity against Cryptococcus neoformans ATCC 34664 at 2 ug/ml by broth dilution method. Type of test: functional, organism-based.
Test [26] concerns Aspergillus niger. As to the kind of experiment: Antifungal activity against Aspergillus niger ATCC 16404 at 2 ug/ml by broth dilution method. Type of test: functional, organism-based.
Test [27] relates to Pichia kudriavzevii. The experiment in a line: Antifungal activity against Candida krusei ATCC 6258 at 2 ug/ml by broth dilution method. Type of test: functional, organism-based.
For test [28], the system named is Fusarium proliferatum. The experiment in a line: Antifungal activity against Fusarium proliferatum ATCC 10052 at 2 ug/ml by broth dilution method. Type of test: functional, organism-based.
In test [29] the test system is Candida albicans. The experiment in a line: Antifungal activity against Candida albicans ATCC 24433 at 2 ug/ml by broth dilution method. The test is classed as functional, organism-based.
Test [30] concerns Aspergillus fumigatus. The experiment in a line: Antifungal activity against Aspergillus fumigatus ATCC 46645 at 2 ug/ml by broth dilution method. Type of test: functional, organism-based.
The subject of test [31] is Nakaseomyces glabratus. The experiment in a line: Antifungal activity against Candida glabrata ATCC 90030 at 16 ug/ml by broth dilution method. Type of test: functional, organism-based.
The test system of test [32] is Candida albicans. The experiment in a line: Antifungal activity against Candida albicans ATCC 24433 at 16 ug/ml by broth dilution method. Type of test: functional, organism-based.
The subject of test [33] is Candida tropicalis. As to the kind of experiment: Antifungal activity against Candida tropicalis ATCC 750 at 128 ug/ml by broth dilution method. The test is classed as functional, organism-based.
In test [34] the test system is Aspergillus fumigatus. As to the kind of experiment: Antifungal activity against Aspergillus fumigatus ATCC 46645 at 128 ug/ml by broth dilution method. The test is classed as functional, organism-based.
The test system of test [35] is Candida albicans. The experiment in a line: Antifungal activity against Candida albicans ATCC 24433 at 128 ug/ml by broth dilution method. The test is classed as functional, organism-based.
Test [36] concerns Nakaseomyces glabratus. The experiment in a line: Antifungal activity against Candida glabrata ATCC 90030 at 128 ug/ml by broth dilution method. Type of test: functional, organism-based.
The test system of test [37] is Cryptococcus neoformans. The experiment in a line: Antifungal activity against Cryptococcus neoformans ATCC 34664 at 128 ug/ml by broth dilution method. Type of test: functional, organism-based.
For test [38], the system named is Fusarium proliferatum. The experiment in a line: Antifungal activity against Fusarium proliferatum ATCC 10052 at 128 ug/ml by broth dilution method. Type of test: functional, organism-based.
For test [39], the system named is Aspergillus niger. As to the kind of experiment: Antifungal activity against Aspergillus niger ATCC 16404 at 128 ug/ml by broth dilution method. Type of test: functional, organism-based.
The subject of test [40] is Pichia kudriavzevii. The experiment in a line: Antifungal activity against Candida krusei ATCC 6258 at 128 ug/ml by broth dilution method. The test is classed as functional, organism-based.
The subject of test [41] is Nakaseomyces glabratus. The experiment in a line: Antifungal activity against Candida glabrata ATCC 90030 at 2 ug/ml by broth dilution method. Type of test: functional, organism-based.
Test [42] concerns Aspergillus fumigatus. As to the kind of experiment: Antifungal activity against Aspergillus fumigatus ATCC 46645 by broth dilution method. The test is classed as functional.
Test [43] relates to Aspergillus niger. The experiment in a line: Antifungal activity against Aspergillus niger ATCC 16404 by broth dilution method. Type of test: functional.
Test [44] has as its system Pichia kudriavzevii. The experiment in a line: Antifungal activity against Candida krusei ATCC 6258 by broth dilution method. The test is classed as functional.
In test [45] the test system is Fusarium proliferatum. As to the kind of experiment: Antifungal activity against Fusarium proliferatum ATCC 10052 by broth dilution method. The test is classed as functional.
For test [46], the system named is Cryptococcus neoformans. As to the kind of experiment: Antifungal activity against Cryptococcus neoformans ATCC 34664 by broth dilution method. The test is classed as functional.

In brackets after ≈: the same amount, converted by molar mass. Activity calls are given as the source filed them. The calls are words filed in the database; no cut-off is given here.

For `COc1ccc(C2=C(c3ccc(Br)cc3)COC2=O)cc1`, the result in the test with Nakaseomyces glabratus [1], in the test on Candida albicans [2], in the test with Fusarium proliferatum [3], in the test on Aspergillus fumigatus [4], in the test on Pichia kudriavzevii [5] and in the test on Aspergillus niger [6] was inactive. Further, the outcome in the test with Cryptococcus neoformans [7] and in the test on Candida tropicalis [8] was inactive.

As for `COc1cc(C2=C(c3ccc(F)cc3F)COC2=O)ccc1OCC(O)(Cn1cncn1)c1ccc(F)cc1F` (racemic), the result with Aspergillus niger [9], in the test with Candida tropicalis [11], in the test on Aspergillus fumigatus [12], with Cryptococcus neoformans [14], in the test with Pichia kudriavzevii [15] and with Fusarium proliferatum [16] was inactive. Further, the MIC50 against Nakaseomyces glabratus [10] and in the test with Candida albicans [13] was 1 µg/mL (≈ 1.8 µM) throughout.

Turning to `O=C1NC(=S)S/C1=C\c1ccc(OCC(O)(Cn2cncn2)c2ccc(F)cc2F)cc1` (racemic), the result in the test with Fusarium proliferatum [3], with Aspergillus fumigatus [4], in the test on Pichia kudriavzevii [5], in the test on Aspergillus niger [6] and with Cryptococcus neoformans [7] was inactive. Moreover, the figures for the MIC50 against Nakaseomyces glabratus [10], in the test with Candida tropicalis [17] and in the test with Candida albicans [13] were 4 µg/mL (≈ 8.43 µM), 8 µg/mL (≈ 16.9 µM) and 0.5 µg/mL (≈ 1.05 µM), respectively.

In the case of `COc1cc(/C=C2\SC(=S)NC2=O)ccc1OCC(O)(Cn1cncn1)c1ccc(F)cc1F` (racemic), the outcome in the test on Aspergillus niger [18], in the test with Pichia kudriavzevii [19], in the test on Aspergillus fumigatus [20], in the test on Cryptococcus neoformans [21], with Candida tropicalis [22] and with Fusarium proliferatum [23] was inactive. Moreover, the MIC50 in the test with Nakaseomyces glabratus [10] came out at 8 µg/mL (≈ 15.9 µM); in the test on Candida albicans [13] it was 1 µg/mL (≈ 1.98 µM).

With `COc1cc(/C=C2\N=C(c3ccccc3)OC2=O)cc(OC)c1OCC(O)(Cn1cncn1)c1ccc(F)cc1F` (racemic), the result in the test on Candida tropicalis [24], in the test on Cryptococcus neoformans [25], in the test with Aspergillus niger [26], with Pichia kudriavzevii [27], in the test on Fusarium proliferatum [28] and in the test on Candida albicans [29] was inactive. For the same molecule, in the test on Aspergillus fumigatus [30], the result was inactive.

As to `COc1cc(/C=C2\SC(=S)NC2=O)cc(OC)c1OCC(O)(Cn1cncn1)c1ccc(F)cc1F` (racemic), the outcome in the test with Aspergillus niger [18], with Pichia kudriavzevii [19], with Aspergillus fumigatus [20], in the test with Nakaseomyces glabratus [31], in the test with Cryptococcus neoformans [21] and in the test with Candida tropicalis [22] was inactive. Moreover, the outcome in the test on Candida albicans [32] and in the test on Fusarium proliferatum [23] was inactive.

With `COc1cc(CC(=O)O)ccc1OCC(O)(Cn1cncn1)c1ccc(F)cc1F` (racemic), the outcome with Candida tropicalis [33], with Aspergillus fumigatus [34], with Candida albicans [35], with Nakaseomyces glabratus [36], with Cryptococcus neoformans [37] and in the test on Fusarium proliferatum [38] was inactive. In addition, the result with Aspergillus niger [39] and in the test with Pichia kudriavzevii [40] was inactive.

For `COc1ccc(C2=C(c3ccc(Br)cc3)/C(=C/c3ccc(OCC(O)(Cn4cncn4)c4ccc(F)cc4F)cc3)OC2=O)cc1` (racemic), the result with Candida tropicalis [24], with Cryptococcus neoformans [25], in the test with Aspergillus niger [26], in the test on Pichia kudriavzevii [27], in the test on Fusarium proliferatum [28] and in the test with Candida albicans [29] was inactive. For the same molecule, the outcome in the test with Nakaseomyces glabratus [41] and in the test with Aspergillus fumigatus [30] was inactive.

For `C[C@@H]1[C@H](O)[C@@H](C)/C=C/C=C/C=C/C=C/C=C/C=C/C=C/[C@H](O[C@@H]2O[C@H](C)[C@@H](O)[C@H](N)[C@@H]2O)C[C@@H]2O[C@](O)(C[C@@H](O)C[C@@H](O)[C@H](O)CC[C@@H](O)C[C@@H](O)CC(=O)O[C@H]1C)C[C@H](O)[C@H]2C(=O)O` [AMPHOTERICIN B], the MIC50 against Aspergillus fumigatus [42] amounted to 0.5 µg/mL (≈ 0.541 µM); against Nakaseomyces glabratus [10], 0.25 µg/mL (≈ 0.271 µM); in the test with Aspergillus niger [43], 0.25 µg/mL (≈ 0.271 µM); in the test on Pichia kudriavzevii [44], 0.5 µg/mL (≈ 0.541 µM); in the test with Fusarium proliferatum [45], 2 µg/mL (≈ 2.16 µM); against Candida tropicalis [17] it was 0.5 µg/mL (≈ 0.541 µM). The MIC50 against Cryptococcus neoformans [46] is 0.5 µg/mL (≈ 0.541 µM); in the test on Candida albicans [13] it was 0.25 µg/mL (≈ 0.271 µM).

Values taken from ChEMBL document CHEMBL1817568, “Novel hybrids of fluconazole and furanones: design, synthesis and antifungal activity” (2011).
